# Paper PMC7539012, “Hyperphosphorylated tau aggregation and cytotoxicity modulators screen identified prescription drugs linked to Alzheimer's disease and cognitive functions” (Scientific Reports, 2020)
# Structures can show the parent of a compound that is named as a salt.
# Tested on: T1, 1N4R p-tau
# T1 construct: made in house; host or cells: E. coli (PIMAX system)
# Assay: p-tau aggregation modulator screen of 1280-compound library (ThS fluorescence net change over 16 h);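 for ThS net change: 30 µM compound with 6 µM p-tau over 16 h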
# Type: biochemical
# Design: key to PTAI>2SD: *: PTAI>2SD
# Conditions: not given
row,Compound,ThS net change
1,CC(=O)N(O)CCCCCNC(=O)CCC(=O)N(O)CCCCCNC(=O)CCC(=O)N(O)CCCCCN [Deferoxamine mesylate],439
2,Merbromin,306
3,C=C[C@H]1CN2CC[C@H]1C[C@@H]2[C@@H](O)c1ccnc2ccc(OC)cc12.Cl.O [Quinidine hydrochloride monohydrate],282
4,Cl.Oc1noc2c1CCNC2 [THIP Hydrochloride],448
5,Clc1ccc(COC(Cn2ccnc2)c2ccc(Cl)cc2Cl)cc1 (stereo not drawn) [Econazole nitrate],309
6,CC(C)C[C@H]1C(=O)N2CCC[C@H]2[C@]2(O)O[C@](NC(=O)[C@@H]3C=C4c5cccc6[nH]c(Br)c(c56)C[C@H]4N(C)C3)(C(C)C)C(=O)N12.CS(=O)(=O)O [Bromocryptine mesylate],296
7,CCC(C)(C)c1ccc(CC(C)CN2C[C@@H](C)O[C@@H](C)C2)cc1 (stereo partly drawn) [Amorolfine hydrochloride],413
8,NC[C@@H]1O[C@H](O[C@H]2[C@@H](O)[C@H](O[C@@H]3[C@@H](O)[C@H](N)C[C@H](N)[C@H]3O[C@H]3O[C@H](CO)[C@@H](O)[C@H](O)[C@H]3N)O[C@@H]2CO)[C@H](N)[C@@H](O)[C@@H]1O [Paromomycin sulfate],472
9,CN(C)CCc1c[nH]c2ccc(Cn3cncn3)cc12 [Rizatriptan benzoate],473
10,CC(C)(C)NC(=O)[C@@H]1CN(Cc2cccnc2)CCN1C[C@@H](O)C[C@@H](Cc1ccccc1)C(=O)N[C@H]1c2ccccc2C[C@H]1O [Indinavir sulfate],457
11,C[C@@H]1O[C@@H](O[C@@H]2C=C3CC[C@@H]4[C@H](CC[C@]5(C)[C@@H](c6ccc(=O)oc6)CC[C@]45O)[C@@]3(C)CC2)[C@H](O)[C@H](O)[C@H]1O [Proscillaridin A],498
12,C[C@]12CCC(=O)C(O)=C1CC[C@@H]1[C@@H]2CC[C@]2(C)C(=O)CC[C@@H]12 [Formestane],413

# Same assay, conditions: 1280-compound library screen; ThS fluorescence net change over 16 h
row,Compound,ThS net change
1,Cn1nnc2c(C(N)=O)ncn2c1=O [Temozolomide],380
2,OC[C@H]1O[C@@H](Oc2ccc(O)cc2)[C@H](O)[C@@H](O)[C@@H]1O [Arbutin],409
3,c1ccc2c(c1)OCC(C1=NCCN1)O2 (stereo not drawn) [Idazoxan hydrochloride],386
4,COc1cc(NS(=O)(=O)c2ccc(N)cc2)nc(OC)n1 [Sulfadimethoxine],380
5,Cl.N=C(N)NC(=N)N1CCOCC1 [Moroxidine hydrochloride],379
6,N#Cc1cc(NC(=O)C(=O)O)c(Cl)c(NC(=O)C(=O)O)c1 [Lodoxamide],409
7,C=CCN1CCCC1CNC(=O)c1cc2nn[nH]c2cc1OC.Cl (stereo not drawn) [Alizapride HCl],383
8,CC(=O)OCC(=O)[C@@]1(O)CC[C@H]2[C@@H]3CCC4=CC(=O)CC[C@]4(C)[C@@]3(F)[C@@H](O)C[C@@]21C [Fludrocortisone acetate],380
9,Nc1cc(C(Cl)=C(Cl)Cl)c(S(N)(=O)=O)cc1S(N)(=O)=O [Clorsulon],393
10,CC1CC(OC(=O)C(O)c2ccccc2)CC(C)(C)N1C (stereo not drawn) [Eucatropine hydrochloride],387
11,Oc1ccc(OCc2ccccc2)cc1 [Monobenzone],382
12,Cl.Cl.Cl.Cl.Cl.NCCNCCNCCNCCN,394
13,C[C@H]1[C@H](NC(=O)/C(=N\OC(C)(C)C(=O)O)c2csc(N)n2)C(=O)N1S(=O)(=O)O [Aztreonam],386
14,O=C(O)c1ccccc1OP(=O)(O)O [Fosfosal],380
15,Clc1ccccc1C(c1ccccc1)(c1ccccc1)n1ccnc1 [Clotrimazole],396
16,CO/N=C(\C(=O)N[C@@H]1C(=O)N2C(C(=O)O)=C(COC(C)=O)CS[C@H]12)c1csc(N)n1 [Cefotaxime sodium salt],384
17,CC(=O)Nc1c(I)c(C(=O)N[C@H]2C(O)O[C@H](CO)[C@@H](O)[C@@H]2O)c(I)c(N(C)C(C)=O)c1I (stereo partly drawn) [Metrizamide],400

# Same assay, conditions: 1280-compound library screen; […]
row,Compound,ThS net change
1,CC(Cc1ccc(O)cc1)NCC(O)c1cc(O)cc(O)c1 (stereo not drawn) [Fenoterol hydrobromide],405
2,NC(=NCc1ccccc1)NC(=O)c1nc(Cl)c(N)nc1N [Benzamil hydrochloride],379
3,COc1ccc(C(CN(C)C)C2(O)CCCCC2)cc1 (stereo not drawn) [Venlafaxine],404
4,CC[C@@H](CO)NC(=O)[C@@H]1C=C2c3cccc4[nH]cc(c34)C[C@H]2N(C)C1 [Methylergometrine maleate],393

# Same assay, conditions: flag: p-tau aggregation inhibitor, ThS net change more than 2 SD from mean
row,Compound,PTAI>2SD
1,CN(C)[C@@H]1C(O)=C(C(N)=O)C(=O)[C@@]2(O)C(O)=C3C(=O)c4c(O)ccc(Cl)c4[C@@H](O)[C@H]3C[C@@H]12 [Demeclocycline hydrochloride],*

# Same assay, conditions: library screen, ThS fluorescence net change over 16 h with p-tau
row,Compound,ThS net change
1,COc1ccc(C(=O)c2ccccc2O)c(O)c1 [Dioxybenzone],296
2,CN(C)[C@@H]1C(O)=C(C(N)=O)C(=O)[C@@]2(O)C(O)=C3C(=O)c4c(O)ccc(Cl)c4[C@@H](O)[C@H]3C[C@@H]12 [Demeclocycline hydrochloride],117
3,C=C1/C(=C\C=C2/CCC[C@]3(C)[C@@H]([C@H](C)CCCC(C)C)CC[C@@H]23)C[C@@H](O)C[C@@H]1O [Alfacalcidol],284
4,O=c1n(CCCN2CCN(c3cccc(Cl)c3)CC2)nc2ccccn12 [Trazodone hydrochloride],316
5,O=c1cc(-c2ccc(O)c(O)c2)oc2cc(O)cc(O)c12 [Luteolin],296
6,O=C(CCCN1CCC(O)(c2ccc(Cl)cc2)CC1)c1ccc(F)cc1 [Haloperidol],319

# Same assay, conditions: p-tau aggregation modulator screen of 1280-compound library; ThS fluorescence net change
row,Compound,ThS net change
1,C[C@H](CS)C(=O)N1CCC[C@H]1C(=O)O [Captopril],370
2,CCc1nc(N)nc(N)c1-c1ccc(Cl)cc1 [Pyrimethamine],354
3,CC(C)(C)NCC(O)c1cc(O)cc(O)c1.CC(C)(C)NCC(O)c1cc(O)cc(O)c1.O=S(=O)(O)O (stereo not drawn) [Terbutaline hemisulfate],339
4,NC(=O)c1ccc[n+]([C@@H]2O[C@H](COP(=O)([O-])OP(=O)(O)OC[C@H]3O[C@@H](n4cnc5c(N)ncnc54)[C@H](O)[C@@H]3O)[C@@H](O)[C@H]2O)c1 [Nadide],366
5,NS(=O)(=O)c1cc2c(cc1C(F)(F)F)NC(Cc1ccccc1)NS2(=O)=O (stereo not drawn) [Bendroflumethiazide],357
6,NC[C@H]1O[C@H](O[C@H]2[C@H](O)[C@@H](O[C@H]3O[C@H](CO)[C@@H](O)[C@H](N)[C@H]3O)[C@H](N)C[C@@H]2N)[C@H](N)C[C@@H]1O [Tobramycin],360
7,Fc1ccc([C@@H]2CCNC[C@H]2COc2ccc3c(c2)OCO3)cc1 [Paroxetine Hydrochloride],363
8,Cc1onc(-c2ccccc2)c1C(=O)N[C@@H]1C(=O)N2[C@@H]1SC(C)(C)[C@@H]2C(=O)[O-].[Na+] [Oxacillin sodium],373
9,CC1Cc2ccccc2N1NC(=O)c1ccc(Cl)c(S(N)(=O)=O)c1 (stereo not drawn) [Indapamide],347
10,CC(=O)[C@H]1CC[C@H]2[C@@H]3C=CC4=CC(=O)CC[C@@]4(C)[C@@H]3CC[C@]12C [Dydrogesterone],371
11,NS(=O)(=O)Cc1noc2ccccc12 [Zonisamide],341
12,COc1ccc2c(c1)c(CC(=O)OCC(=O)O)c(C)n2C(=O)c1ccc(Cl)cc1 [Acemetacin],349
13,CN(C)C(=O)Oc1cc(OC(=O)N(C)C)cc(C(O)CNC(C)(C)C)c1.Cl (stereo not drawn) [Bambuterol hydrochloride],336
14,c1ccc2c(CC3=NCCN3)cccc2c1 [Naphazoline hydrochloride],361

# Same assay, conditions: p-tau aggregation modulator screen of the compound library, ThS fluorescence net change
row,Compound,ThS net change
1,C#C[C@]1(O)CC[C@H]2[C@@H]3CCC4=Cc5oncc5C[C@]4(C)[C@H]3CC[C@@]21C [Danazol],495
2,CC1(C)O[C@@H]2C[C@H]3[C@@H]4C[C@H](F)C5=CC(=O)C=C[C@]5(C)[C@@]4(F)[C@@H](O)C[C@]3(C)[C@]2(C(=O)CO)O1 [Fluocinolone acetonide],460
3,CC(=O)CC(c1ccccc1)c1c(O)c2ccccc2oc1=O (stereo not drawn) [Warfarin],413
4,CC(=O)[C@H]1CC[C@H]2[C@@H]3CC=C4C[C@@H](O)CC[C@]4(C)[C@H]3CC[C@]12C [Pregnenolone],482
5,CC[C@H](C)[C@H]1O[C@]2(C=C[C@@H]1C)C[C@@H]1C[C@@H](C/C=C(\C)[C@@H](O[C@H]3C[C@H](OC)[C@@H](O[C@H]4C[C@H](OC)[C@@H](O)[C@H](C)O4)[C@H](C)O3)[C@@H](C)/C=C/C=C3\CO[C@@H]4[C@H](O)C(C)=C[C@@H](C(=O)O1)[C@]34O)O2 [Avermectin B1a],676
6,CC(=O)OCC(CCn1cnc2cnc(N)nc21)COC(C)=O [Famciclovir],459
7,CN1CCN(c2c(F)cc3c(=O)c(C(=O)O)cn4c3c2SCC4)CC1 [Rufloxacin],476
8,CC1/C=C/C=C/CC/C=C/C=C/C=C/C=C/C(O[C@@H]2O[C@H](C)[C@@H](O)[C@H](N)[C@@H]2O)CC(O)C(C(=O)O)C(O)CC(=O)CC(O)C(O)CCC(O)CC(O)CC(O)CC(=O)OC(C)C(C)C1O (stereo partly drawn) [Nystatine],446
9,O=C(CCCCC(=O)Nc1c(I)cc(I)c(C(=O)O)c1I)Nc1c(I)cc(I)c(C(=O)O)c1I [Iodipamide],421
10,CCCCC(C)(O)C/C=C/[C@H]1[C@H](O)CC(=O)[C@@H]1CCCCCCC(=O)OC (mixture of isomers) [Misoprostol],495
11,CCC(Cc1c(I)cc(I)c(N)c1I)C(=O)O (stereo not drawn) [Iopanoic acid],464
12,COc1c(N2CCNC(C)C2)c(F)cc2c(=O)c(C(=O)O)cn(C3CC3)c12 (stereo not drawn) [Gatifloxacin],426
13,CC1(C)O[C@@H]2C[C@H]3[C@@H]4CCC5=CC(=O)C=C[C@]5(C)[C@H]4[C@@H](O)C[C@]3(C)[C@]2(C(=O)CO)O1 [Desonide],440
14,CCCCc1nc(Cl)c(CO)n1Cc1ccc(-c2ccccc2-c2nn[nH]n2)cc1 [Losartan],468
15,c1ccc(-c2ccc(C(c3ccccc3)n3ccnc3)cc2)cc1 (stereo not drawn) [Bifonazole],432
